Experimental data taken from ChEMBL document CHEMBL1201862, “PubChem BioAssay data set” (2004).
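Test compounds were applied to cells in 96-well plates for 48 hours at 5 doses. GI50: concentration for 50% inhibition of growth.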 Calls of active or inactive are those of the source. Cut-off read from the data, not from the text of the source: active = GI50 up to about 1.1 µM and inactive = higher.

Key:
Assay in all cases: growth of human tumour cells (NCI), 48 h
SR = test system: SR
UACC-257 = test system: UACC-257
CAKI-1 = test system: CAKI-1
KM12 = test system: KM12
TK-10 = test system: TK-10
NCI-H522 = test system: NCI-H522
HOP-62 = test system: HOP-62
HOP-92 = test system: HOP-92
HCT-15 = test system: HCT-15
MOLT-4 = test system: MOLT-4
HL-60 = test system: HL-60
RPMI-8226 = test system: RPMI-8226
A498 = test system: A498
HCT-116 = test system: HCT-116
SF-268 = test system: SF-268
OVCAR-5 = test system: OVCAR-5
IGROV-1 = test system: IGROV-1
Malme-3M = test system: Malme-3M

SMILES | GI50 (SR) | GI50 (UACC-257) | GI50 (CAKI-1) | GI50 (KM12) | GI50 (TK-10) | GI50 (NCI-H522) | GI50 (HOP-62) | GI50 (HOP-92) | GI50 (HCT-15) [µM] | GI50 (MOLT-4) | GI50 (HL-60) | GI50 (RPMI-8226) | GI50 (A498) | GI50 (HCT-116) | GI50 (SF-268) | GI50 (OVCAR-5) | GI50 (IGROV-1) | GI50 (Malme-3M)
CN1C(=O)C2(C=CC(O)CC2)c2ccccc21 (configuration not stated) | > 100 µM (inactive) | > 100 µM (inactive) | > 100 µM (inactive) | > 100 µM (inactive) | > 100 µM (inactive) | > 100 µM (inactive) | > 100 µM (inactive) | > 100 µM (inactive) | > 100 | > 100 µM (inactive) | > 100 µM (inactive) | > 100 µM (inactive) | > 100 µM (inactive) | > 100 µM (inactive) | > 100 µM (inactive) | > 100 µM (inactive) | > 100 µM (inactive) | 
O=C1CC(Cc2n[nH]c3c2CCCC3)CC(=O)N1 | > 100 µM (inactive) | > 100 µM (inactive) | > 100 µM (inactive) | > 100 µM (inactive) | > 100 µM (inactive) |  | > 100 µM (inactive) | > 100 µM (inactive) | > 100 | > 100 µM (inactive) | > 100 µM (inactive) | > 100 µM (inactive) | > 100 µM (inactive) | > 100 µM (inactive) | > 100 µM (inactive) | > 100 µM (inactive) | > 100 µM (inactive) | > 100 µM (inactive)
O=c1ss/c(=N\c2ccccc2)n1-c1ccccc1 | 17.3 µM (inactive) | 20.4 µM (inactive) |  | 30.8 µM (inactive) | 50.6 µM (inactive) |  | 20.6 µM (inactive) | 21.6 µM (inactive) | 17.8 | 28.7 µM (inactive) | 31.1 µM (inactive) | 21.4 µM (inactive) | > 100 µM (inactive) |  | 18.5 µM (inactive) | 40.2 µM (inactive) |  | > 100 µM (inactive)
O=C(CCC(C(=O)OCc1ccccc1)C(=O)OCc1ccccc1)Nc1ccc(OCc2ccccc2)cc1 | 99.1 µM (inactive) | > 100 µM (inactive) | > 100 µM (inactive) | > 100 µM (inactive) | 63.4 µM (inactive) | > 100 µM (inactive) | > 100 µM (inactive) | > 100 µM (inactive) | 14 | 55.6 µM (inactive) | > 100 µM (inactive) |  | 21 µM (inactive) | 14.3 µM (inactive) | > 100 µM (inactive) | > 100 µM (inactive) | > 100 µM (inactive) | > 100 µM (inactive)
CCCCCCCCCCCCCCCCCCOCC(CO[PH](=O)O)OCCCCCCCCCCCCCCCCCC (configuration not stated) | > 50 µM (inactive) | > 50 µM (inactive) | > 50 µM (inactive) | > 50 µM (inactive) | > 50 µM (inactive) | > 50 µM (inactive) |  | > 50 µM (inactive) | > 50 | > 50 µM (inactive) | > 50 µM (inactive) | > 50 µM (inactive) | > 50 µM (inactive) | > 50 µM (inactive) | > 50 µM (inactive) | > 50 µM (inactive) | > 50 µM (inactive) | 
CC1CCC(=O)C(C(=O)CC2CC(=O)NC(=O)C2)C1 (configuration not stated) | > 100 µM (inactive) | > 100 µM (inactive) | > 100 µM (inactive) | > 100 µM (inactive) | > 100 µM (inactive) |  | > 100 µM (inactive) | > 100 µM (inactive) | > 100 | > 100 µM (inactive) | > 100 µM (inactive) | > 100 µM (inactive) | > 100 µM (inactive) | > 100 µM (inactive) | > 100 µM (inactive) | > 100 µM (inactive) | > 100 µM (inactive) | > 100 µM (inactive)
SC1=NNC2(C(S)=N1)c1ccccc1-c1ccccc12 | > 10 µM (inactive) | > 10 µM (inactive) | > 10 µM (inactive) | > 10 µM (inactive) | > 10 µM (inactive) |  | > 10 µM (inactive) | > 10 µM (inactive) | > 10 | > 10 µM (inactive) | > 10 µM (inactive) | > 10 µM (inactive) | 0.697 µM (active) |  | > 10 µM (inactive) |  | > 10 µM (inactive) | > 10 µM (inactive)
Nc1nc(=O)c2cc(NCc3ccc(C(=O)NC(CCC(=O)O)C(=O)O)cc3)ccc2[nH]1 (configuration not stated) | 23.3 µM (inactive) | > 100 µM (inactive) | 34.4 µM (inactive) | > 100 µM (inactive) | > 100 µM (inactive) | > 100 µM (inactive) | > 100 µM (inactive) | > 100 µM (inactive) | > 100 | > 100 µM (inactive) | 21.4 µM (inactive) | > 100 µM (inactive) |  | > 100 µM (inactive) | 59 µM (inactive) | > 100 µM (inactive) | > 100 µM (inactive) | > 100 µM (inactive)
CC(CC(N)C(=O)O)C(=O)O (configuration not stated) | > 100 µM (inactive) | > 100 µM (inactive) | > 100 µM (inactive) | > 100 µM (inactive) | > 100 µM (inactive) | > 100 µM (inactive) | > 100 µM (inactive) | > 100 µM (inactive) | > 100 | > 100 µM (inactive) | > 100 µM (inactive) |  | > 100 µM (inactive) | > 100 µM (inactive) | > 100 µM (inactive) | > 100 µM (inactive) | > 100 µM (inactive) | > 100 µM (inactive)
